Earlier results as cited in patent publication US20230285287A1, “PHARMACEUTICAL COMPOSITIONS” (DOUGLAS PHARMACEUTICALS LIMITED, priority 2019, published 2023).
Entries after “also recorded” stand apart in the source; their conditions may differ.

Conditions: known from the literature (Donato et al.)

CC(C)c1nc(CN(C)C(=O)N[C@H](C(=O)N[C@@H](Cc2ccccc2)C[C@H](O)[C@H](Cc2ccccc2)NC(=O)OCc2cncs2)C(C)C)cs1 [Ritonavir, 1,3-thiazol-5-ylmethyl N-[(2S,3S,5S)-3-hydroxy-5-[[(2S)-3-methyl-2-[[methyl-[(2-propan-2-yl-1,3-thiazol-4-yl)methyl]carbamoyl]amino]butanoyl]amino]-1,6-diphenylhexan-2-yl]carbamate]
chemical stability / degradation route: thermolytically driven; also recorded: particularly prone to hydrolysis; also recorded: oxygen labile
